The results in this text go back to US20100099614A1, “Antimicrobial Peptides and Methods of Use” (priority 2008, published 2010).

Each structure is given as a SMILES string. Like-named read-outs stand apart in the source and are kept apart here.

This assay has as its system multiple drug resistant M. tuberculosis strain vertulo. To be noted: for Anti-tuberculosis activity to multi-drug resistant strain (vertulo) Fold (compared to D4): relative to D4.

Consider `CC[C@@H](C)[C@@H](NC(=O)[C@@H](C)NC(=O)[C@@H](CCCCN)NC(=O)[C@@H](CC(C)C)NC(=O)[C@@H](C)NC(=O)[C@H](NC(=O)[C@@H](Cc1c[nH]cn1)NC(=O)[C@@H](CC(C)C)NC(=O)[C@H](NC(=O)[C@H](NC(=O)[C@@H](CCCCN)NC(=O)[C@@H](CCCCN)NC(=O)[C@@H](C)NC(=O)[C@@H](CO)NC(=O)[C@@H](CCCCN)NC(=O)[C@@H](Cc1ccccc1)NC(=O)[C@H](NC(=O)[C@@H](CCCCN)NC(=O)[C@@H](CC(C)C)NC(=O)[C@@H](Cc1ccccc1)NC(=O)[C@@H](CO)NC(=O)[C@@H](CCCCN)NC(=O)[C@@H](Cc1c[nH]c2ccccc12)NC(=O)[C@@H](CCCCN)NC(C)=O)[C@H](C)O)[C@H](C)O)C(C)C)[C@H](C)O)C(=O)N[C@H](CO)C(=O)N[C@H](CO)C(N)=O` [D1], for which the “Anti-tuberculosis activity to multi-drug resistant strain (vertulo) MIC” value amounted to 57 µg/mL and the “Anti-tuberculosis activity to multi-drug resistant strain (vertulo) Fold (compared to D4)” value is given as above 8.4 fold. In addition, the “Anti-tuberculosis activity to multi-drug resistant strain (vertulo) MIC” value (multiple drug resistant strain vertulo) worked out at 19.1 µM.

`CC[C@@H](C)[C@@H](NC(=O)[C@@H](CC(C)C)NC(=O)[C@@H](CCCCN)NC(=O)[C@@H](CC(C)C)NC(=O)[C@@H](CC(C)C)NC(=O)[C@H](NC(=O)[C@@H](Cc1c[nH]cn1)NC(=O)[C@@H](CC(C)C)NC(=O)[C@@H](CCCCN)NC(=O)[C@H](NC(=O)[C@@H](CCCCN)NC(=O)[C@@H](CCCCN)NC(=O)[C@@H](CC(C)C)NC(=O)[C@@H](CO)NC(=O)[C@@H](CCCCN)NC(=O)[C@@H](Cc1ccccc1)NC(=O)[C@H](NC(=O)[C@@H](CCCCN)NC(=O)[C@@H](CC(C)C)NC(=O)[C@@H](Cc1ccccc1)NC(=O)[C@@H](CO)NC(=O)[C@@H](CCCCN)NC(=O)[C@@H](Cc1c[nH]c2ccccc12)NC(=O)[C@@H](CCCCN)NC(C)=O)[C@H](C)O)[C@H](C)O)[C@H](C)O)C(=O)N[C@H](CO)C(=O)N[C@H](CO)C(N)=O` [D5]: the “Anti-tuberculosis activity to multi-drug resistant strain (vertulo) Fold (compared to D4)” value is recorded as above 10.3 fold.
